Data taken from PubChem BioAssay AID248 (DTP/NCI, 2004).
“And” between values parts separate entries of the source, which are not always exact repeats. Equal entries are not always repeated. Inconclusive results and toxic doses are left out. No stated cut-off is given here; in the data, active means T/C of 150% or more; inactive means T/C below 125%.

Tested on: L1210 leukemia ip in BDF1 mice, survival T/C
Experiment: NCI In Vivo Anticancer Drug Screen. Data for tumor model L1210 Leukemia (intraperitoneal) in B6D2F1 (BDF1) mice
Conditions: endpoint: mean survival time, higher = longer survival
Procedure, shortened: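 Transplanted-tumor mice were given test agent; controls received vehicle only. Survival readings from the two groups were divided (treated over control).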

[1] = dose: 100.0 mg/kg/injection, schedule: Q01DX009 (ip), vehicle: saline with Tween-80
[2] = dose: 100.0 mg/kg/injection, schedule: Q04DX003 (ip), vehicle: saline with Tween-80
[3] = dose: 200.0 mg/kg/injection, schedule: Q01DX009 (ip), vehicle: saline with Tween-80
[4] = dose: 200.0 mg/kg/injection, schedule: Q04DX003 (ip), vehicle: saline with Tween-80
[5] = dose: 400.0 mg/kg/injection, schedule: Q01DX009 (ip), vehicle: saline with Tween-80
[6] = dose: 400.0 mg/kg/injection, schedule: Q04DX003 (ip), vehicle: saline with Tween-80

Measured: T/C

CC(=O)N1C(=O)NC(=O)C1(C)c1ccc(Cl)s1 (centres undefined)
inactive: [1] 96 % of control | [2] 100 % of control | [3] 103 % of control | [4] 97 % of control | [5] 91 % of control | [6] 88 % of control

Cc1ccc(Cl)cc1NC(=O)Nc1ccc(N(C)C)cc1
inactive: dose: 100.0 mg/kg/injection, schedule: Q01DX001 (ip), vehicle: saline with Tween-80 92 % of control | [1] 87 % of control and 90 % of control | dose: 100.0 mg/kg/injection, schedule: Q04DX002 (ip), vehicle: saline with Tween-80 95 % of control and 90 % of control | [2] 92 % of control | dose: 200.0 mg/kg/injection, schedule: Q01DX001 (ip), vehicle: saline with Tween-80 87 % of control | [3] 89 % of control and 90 % of control | dose: 200.0 mg/kg/injection, schedule: Q04DX002 (ip), vehicle: saline with Tween-80 98 % of control and 87 % of control | [4] 92 % of control | dose: 400.0 mg/kg/injection, schedule: Q01DX001 (ip), vehicle: saline with Tween-80 87 % of control | [5] 97 % of control and 91 % of control | dose: 400.0 mg/kg/injection, schedule: Q04DX002 (ip), vehicle: saline with Tween-80 87 % of control | [6] 89 % of control

Nc1[nH]c(=O)cc(O)c1N
inactive: dose: 12.5 mg/kg/injection, schedule: Q04DX003 (ip), vehicle: saline 108 % of control | dose: 25.0 mg/kg/injection, schedule: Q04DX003 (ip), vehicle: saline 105 % of control | dose: 100.0 mg/kg/injection, schedule: Q04DX003 (ip), vehicle: saline 98 % of control

COc1ccc(C2=NC(=O)C(C)(C(C)=O)O2)cc1 (centres undefined)
inactive: dose: 100.0 mg/kg/injection, schedule: Q01DX001 (ip), vehicle: saline 93 % of control | dose: 200.0 mg/kg/injection, schedule: Q01DX001 (ip), vehicle: saline 90 % of control | dose: 400.0 mg/kg/injection, schedule: Q01DX001 (ip), vehicle: saline 90 % of control

O=S(=O)(c1ccc2ccccc2c1)C1CC1c1ccccc1 (centres undefined)
inactive: dose: 100.0 mg/kg/injection, schedule: Q01DX001 (ip), vehicle: acetone 92 % of control | dose: 200.0 mg/kg/injection, schedule: Q01DX001 (ip), vehicle: acetone 98 % of control | dose: 400.0 mg/kg/injection, schedule: Q01DX001 (ip), vehicle: acetone 93 % of control

CC[CH2][Sn]([CH2]CC)([CH2]CC)[O]C(=O)C(Cl)(Cl)Cl
inactive: dose: 0.39 mg/kg/injection, schedule: Q01DX009 (ip), vehicle: saline with Tween-80 87 % of control | dose: 0.78 mg/kg/injection, schedule: Q01DX009 (ip), vehicle: saline with Tween-80 98 % of control | dose: 1.56 mg/kg/injection, schedule: Q01DX009 (ip), vehicle: saline with Tween-80 91 % of control

Nc1cc(Br)cc2c1-c1ccc(Br)cc1C2
inactive: dose: 50.0 mg/kg/injection, schedule: Q01DX001 (ip), vehicle: carboxymethylcellulose (CMC) 107 % of control | dose: 100.0 mg/kg/injection, schedule: Q01DX001 (ip), vehicle: carboxymethylcellulose (CMC) 104 % of control | dose: 200.0 mg/kg/injection, schedule: Q01DX001 (ip), vehicle: carboxymethylcellulose (CMC) 96 % of control | dose: 400.0 mg/kg/injection, schedule: Q01DX001 (ip), vehicle: carboxymethylcellulose (CMC) 102 % of control

CC(C)c1ccc(/C=N/NC(=O)c2ccc[n+](C)c2)cc1
inactive: dose: 12.5 mg/kg/injection, schedule: Q01DX009 (ip), vehicle: saline 94 % of control | dose: 25.0 mg/kg/injection, schedule: Q01DX009 (ip), vehicle: saline 98 % of control | dose: 50.0 mg/kg/injection, schedule: Q01DX009 (ip), vehicle: saline 112 % of control and 91 % of control

CC(C)N(C(C)C)C(C)CCNc1c2ccccc2nc2cc(Cl)ccc12 (centres undefined)
inactive: dose: 1.88 mg/kg/injection, schedule: Q01DX Z (ip), vehicle: methylcellulose (MC) 113 % of control | dose: 3.0 mg/kg/injection, schedule: Q01DX Z (ip), vehicle: methylcellulose (MC) 117 % of control | dose: 3.75 mg/kg/injection, schedule: Q01DX Z (ip), vehicle: methylcellulose (MC) 115 % of control | dose: 5.0 mg/kg/injection, schedule: Q01DX Z (ip), vehicle: methylcellulose (MC) 116 % of control | dose: 6.0 mg/kg/injection, schedule: Q04DX003 (ip), vehicle: saline 98 % of control | dose: 7.5 mg/kg/injection, schedule: Q01DX Z (ip), vehicle: methylcellulose (MC) 110 % of control | dose: 12.0 mg/kg/injection, schedule: Q04DX003 (ip), vehicle: saline 102 % of control | dose: 15.0 mg/kg/injection, schedule: Q01DX Z (ip), vehicle: methylcellulose (MC) 109 % of control | dose: 24.0 mg/kg/injection, schedule: Q04DX003 (ip), vehicle: saline 105 % of control

Cc1ccc(N=[N+]([O-])c2ccc(C)c(Br)c2)cc1Br
inactive: dose: 100.0 mg/kg/injection, schedule: Q04DX002 (ip), vehicle: Klucel (hydroxypropylcellulose) (HPC) 102 % of control | dose: 200.0 mg/kg/injection, schedule: Q04DX002 (ip), vehicle: Klucel (hydroxypropylcellulose) (HPC) 98 % of control | dose: 400.0 mg/kg/injection, schedule: Q04DX002 (ip), vehicle: Klucel (hydroxypropylcellulose) (HPC) 98 % of control

Cc1ccc(Cl)c(C(=O)C(Br)C(Br)c2ccccc2)c1 (centres undefined)
inactive: dose: 12.5 mg/kg/injection, schedule: Q01DX009 (ip), vehicle: saline with Tween-80 100 % of control | dose: 25.0 mg/kg/injection, schedule: Q01DX009 (ip), vehicle: saline with Tween-80 100 % of control | dose: 50.0 mg/kg/injection, schedule: Q01DX009 (ip), vehicle: saline with Tween-80 94 % of control and 100 % of control

CC(=O)[C@H]1CC[C@H]2[C@@H]3CCC4=CC(=O)C=C[C@]4(C)[C@H]3C(=O)C[C@]12C
inactive: dose: 25.0 mg/kg/injection, schedule: Q01DX015 (sc), vehicle: steriod suspending solution 98 % of control | dose: 50.0 mg/kg/injection, schedule: Q01DX015 (sc), vehicle: steriod suspending solution 100 % of control | dose: 100.0 mg/kg/injection, schedule: Q01DX009 (sc), vehicle: steriod suspending solution 97 % of control | dose: 100.0 mg/kg/injection, schedule: Q01DX015 (sc), vehicle: steriod suspending solution 93 % of control | dose: 100.0 mg/kg/injection, schedule: Q04DX003 (ip), vehicle: steriod suspending solution 98 % of control | dose: 200.0 mg/kg/injection, schedule: Q01DX009 (sc), vehicle: steriod suspending solution 97 % of control | dose: 200.0 mg/kg/injection, schedule: Q01DX015 (sc), vehicle: steriod suspending solution 104 % of control and 107 % of control | dose: 200.0 mg/kg/injection, schedule: Q04DX003 (ip), vehicle: steriod suspending solution 101 % of control | dose: 400.0 mg/kg/injection, schedule: Q01DX009 (sc), vehicle: steriod suspending solution 100 % of control | dose: 400.0 mg/kg/injection, schedule: Q01DX015 (sc), vehicle: steriod suspending solution 104 % of control | dose: 400.0 mg/kg/injection, schedule: Q04DX003 (ip), vehicle: steriod suspending solution 112 % of control | dose: 800.0 mg/kg/injection, schedule: Q01DX015 (sc), vehicle: steriod suspending solution 104 % of control
